Among the data in patent US20050250826A1, “Compounds, compositions, processes of making, and methods of use related to inhibiting macrophage migration inhibitory factor” (priority 2004, published 2005) are anti-inflammatory activity, melting point and IC50 values, retold here.

The test system of series [1] is carageenin-induced edema. The settings on record: rat paw; compared to parent compound unsubstituted in the para position of the phenyl ring; Curuzu et al. 1991; cited from earlier work.
Series [2] concerns the target T1, recombinant human MIF (Homo sapiens, UniProt P14174).
T1 construct: made in house; host or cells: E. coli
T1 sequence (P14174 2-115 limits assumed): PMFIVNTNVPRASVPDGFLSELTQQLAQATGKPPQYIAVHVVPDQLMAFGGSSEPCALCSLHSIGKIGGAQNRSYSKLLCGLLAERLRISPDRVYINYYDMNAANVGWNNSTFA
Description: MIF dopachrome tautomerase assay. It counts as biochemical. The note with it: dose-dependent inhibition. From the text:
The compounds of Formula I or II are identified as MIF inhibitors because they inhibit MIF enzymatic activity in vitro. […] This reaction predicts therapeutic MIF inhibitors (see U.S. Pat. No. 6,420,188 and U.S. Pat. No. 6,599,938, the disclosures of which are incorporated herein by reference in their entirety). Inhibition of MIF tautomerase activity is predictive of inhibition of MIF biological activity.
A method for performing an assay for MIF dopachrome tautomerase activity begins with the preparation and oxidation of a DOPA-related substrate precursor, such as L-3,4-dihydroxyphenylalanine methyl ester. […] The absorbance is measured at about 475 nm (or 550 nm for substrate concentrations in excess […]). A test compound may be included in the assay solution such that the effect of the test compound on MIF tautomerase activity (i.e., as an inhibitor) may be measured by noting the change in kinetics of substrate tautomerization compared to control assays performed in the absence of the test inhibitor compound. […]
L-3,4-dihydroxyphenylalanine methyl ester (e.g., Sigma D-1507) is a dopachrome substrate precursor, and is prepared as a 4 mM solution in dd H2O Sodium periodate is prepared as an 8 mM solution in dd H2O. […] Inhibition of MIF tautomerase activity by the test compounds is determined by inhibition of the de-colorization of the assay mixture, often at the 20 sec time point. […]

`O=C(O)CC1CC(c2ccc(O)cc2)=NO1` (centres unmarked) [3-(4-hydroxyphenyl)-4,5-dihydro-5-isoxazolineacetic acid]: the anti-inflammatory activity result in series [1] was “devoid of anti-inflammatory activity”.

Turning to `COc1ccc(C2=NOC(CC(=O)O)C2)cc1` (centres unmarked) [3-(4-methoxyphenyl)-4,5-dihydro-5-isoxazolineacetic acid], the anti-inflammatory activity result in series [1] is “dramatically reduced”. For orientation: melting point means the temperature, or range, at which the solid turns liquid. Take `CCOC(=O)C(C)CC1CC(c2ccc(O)cc2)=NO1` (centres unmarked) [Compound 32]: the melting point was 192 to 194 °C. As a reminder, the IC50 is the concentration needed to halve the response being measured. For the molecule `O=C(CC1CC(c2ccc(O)cc2)=NO1)N1CCCC1` (centres unmarked) [Compound 68], the IC50 in series [2] is ~10 µM.

`O=C(CC1CC(c2ccc(O)cc2)=NO1)N1CCOCC1` (centres unmarked) [Compound 69]: the IC50 in series [2] was ~10 µM.
